# Counter-ions that a name gives are not always drawn.
# Experiments:
# [1] = Intrinsic dissolution in water at 37° C. (Woods apparatus pellet, UV absorbance at 343 nm); format: physicochemical
# Protocol: Intrinsic Dissolution: Pellets of approximately 200 mg were pressed at 3000 lbs. for 1 minute in a standard Woods apparatus, with a surface area of 0.5 cm^2. One pellet was tested for each material. The samples were rotated in a VanKel dissolution apparatus, with automated sampling, at 100 RPM in 900 mL of water at 37° C. Aliquots were taken every two minutes and not filtered prior to analysis. […] A wavelength of approximately 343 nm was chosen for the cocrystal to avoid potential interference from maleic acid. To determine the rate of dissolution of each material, a plot was generated of the absorbance over time for each material. From this plot, a linear region was chosen from the initial dissolution period of each material. Concentrations were plotted versus time for the regions. A straight-line was fit to the data for each material. The slope of these lines provides the dissolution rate for each of the materials, expressed as [μg/mL]/min. The rates were not normalized for the surface area of the pellet. Aliquots of the dissolution medium were removed manually at the end of the run and analyzed by UV spectrophotometry, and the remainder of the pellets were recovered for XRPD analysis. FIG. 2-3 depicts the UV absorbance (at 343 nm) vs. time curves for the intrinsic dissolution experiment on flupirtine maleate in water at 37° C. […] Intrinsic dissolution experiments were performed under sink conditions in water at 37° C. […] The intrinsic dissolution rate of the 1:1 flupirtine hydrochloride maleic acid cocrystal was ˜0.21 μg/mL/min. There appeared to be a slow chemical change occurring in the dissolution medium. The solid recovered from the intrinsic dissolution experiment was analyzed by XRPD and determined to correspond to a mixture of the flupirtine hydrochloride maleic acid cocrystal and a small amount of an unidentified material.
# [2] = cited from earlier work
# [3] = in man; cited from earlier work
# [4] = water, 37° C., 100 RPM, 900 mL, 0.5 cm^2 pellet, not normalized for surface area
intrinsic dissolution rate ([1]; sink conditions in water at 37° C.) [µg/mL/min],"intrinsic dissolution rate [1, 4]","aqueous solubility as indicated by low absorbance values in the intrinsic dissolution experiment ([1]; water, 37° C., UV absorbance at 343 nm)",SMILES,solubility in water [2],time to maximum plasma concentration (tmax) [3] [h]
~0.21,0.21 [μg/mL]/min,–,CCOC(=O)Nc1ccc(NCc2ccc(F)cc2)nc1N.Cl.O=C(O)C=CC(=O)O,–,–
–,0.088 [μg/mL]/min,poor aqueous solubility,CCOC(=O)Nc1ccc(NCc2ccc(F)cc2)nc1N [flupirtine maleate],insoluble in water,–
–,–,–,"CCOC(=O)Nc1ccc(NCc2ccc(F)cc2)nc1N [flupirtine, 2-amino-3-carbethoxyamino-6-(p-fluorobenzylamino)pyridine]",–,2

# Reference: patent publication US20110275679A1, “FLUPIRTINE HYDROCHLORIDE MALEIC ACID COCRYSTAL” (Bionevia Pharmaceuticals, Inc., priority 2008, published 2011)
